Assays:
[1] = test system: U-46619 induced airway resistance increase; assay: Inhibition of U-46619 induced airway resistance increase in guinea pig by oral administration (Test (3)); type: in vivo, guinea pig (male Hartley); details: 10 mg/kg oral, 1 hour before U-46619 (3 μg/kg i.v.)
Experimental: (3) Test Method for the Inhibition of U-46619 Induced Airway Resistance Increase in Guinea Pig by Oral Administration of Compounds
A male Hartley guinea pig (500 to 800 g) was anesthetized with urethane (1.2 g/kg, i.p.) and fixed on the back to insert a tracheal cannula. Spontaneous respiration was stopped with gallamine (1 mg/kg, i.v.) and artificial respiration was carried out at a rate of 60 strokes/min, volume 1 ml/100 g body weight/cycle. After total jugular intravenous administration of U-46619 (3 μg/kg), the increasing airway resistance was measured by a respiration function measuring apparatus (Model 6, Buxco Electronics Inc.). In this case, test compound was orally administered 1 hour before the administration of U-46619, as a dimethyl sulfoxide solution or as a methyl cellulose suspension.
The results were calculated as the inhibition ratio of airway resistance at the time of the administration of 10 mg/kg of the compound.

[2] = test system: LTD4-induced vascular permeability acceleration; assay: Inhibition of LTD4-induced vascular permeability acceleration by oral administration (Test (4)); type: in vivo, guinea pig (male Hartley); details: 10 mg/kg oral, 1 hour before LTD4 (5 ng/site intracutaneous); dimethyl sulfoxide solution (DMSO)
Experimental: (4) Test Method for the Inhibition of LTD4 -Induced Vascular Permeability Acceleration by Oral Administration of Compounds
A male Hartley guinea pig whose dorsal hair had been cut on the day before the test was subjected to intravenous administration of 1% Evans blue aqueous solution (1 ml/animal). Two minutes thereafter, LTD4 (5 ng/site) was administered inside the dorsal skin of the guinea pig, and the guinea pig was sacrificed by decapitation 30 minutes thereafter. The skin where intracutaneous injection of LTD4 was carried out was collected, and the pigment leaked into the skin was extracted. Amount of the leaked pigment was calculated by measuring its absorbance at 620 nm and used as the index of vascular permeability. The test compound was orally administered as a dimethyl sulfoxide solution 1 hour before the intracutaneous administration of LTD4. The results were calculated as the inhibition ratio at the time of the administration of 10 mg/kg of the compound.

[3] = test system: ileal contraction by LTD4; assay: Inhibition of ileal contraction by LTD4 in guinea pig (Test (2)); parameters: species or system guinea pig (male Hartley); details: guinea pig ileum, LTD4 10^-9 M; compound incubation 20 minutes
Experimental: (2) Test Method for the Inhibition of Ileal Contraction by LTD4 in Guinea Pig
A male Hartley guinea pig of 500 to 700 g in body weight was sacrificed by head blow. The ileum was set in a Magnus vessel containing 10 ml of Tyrode solution aerated with a 95% O2 +5% CO2 mixture gas at a tension of 1.0 g. The tension generated by the tissue was isometrically measured using a threton gage transducer. Ileal contraction reaction against LTD4 (10^-9 M) was measured in the absence of the compound and then in the presence of the test compound in varied concentrations. Incubation time of the compound was set to 20 minutes.

[4] = test system: platelet aggregation induced by U-46619 (stable analog of TXA2); assay: Inhibition of platelet aggregation induced by U-46619 (Test (1)); type: cell-based, guinea pig (male Hartley); details: Cavia porcellus; guinea pig PRP, platelet count 500,000/μl; compound added 2 minutes before U-46619
Experimental: (1) Test Method for the Inhibition of Platelet Aggregation Induced by U-46619
Using a plastic syringe containing 1 volume of 3.8% sodium citrate aqueous solution, 9 volumes of blood was collected from the abdominal aorta of a male Hartley guinea pig of about 800 g in body weight. Platelet rich plasma (PRP) was obtained by subjecting the blood to 10 minutes of centrifugation at 270×g, and the remaining blood was further centrifuged at 1,100×g for 10 minutes to give platelet poor plasma (PPP). The PRP was diluted with PPP to control the platelet count to 500,000/μl, and platelet aggregation by a stable analog of TXA2, U-46619 (a chemical name: 9,11-dideoxy-9α,11α-methanoepoxy-prostaglandin F2 α), was measured in accordance with the method of Bone and Cross (Journal of Physiology, vol.168, pp.178-195, 1963).
That is, changes in the light transmittance of PRP by U-46619 (10^-6 […]) was measured using NBS Hematracer. The compound was added 2 minutes before the addition of U-46619, and the IC50 value (50% inhibition concentration) was calculated from the inhibition ratio based on the maximum light transmittance by U-46619.

[5] = dimethyl sulfoxide solution (DMSO)

Compound	Test (3) Inhibition ratio [1, 5] [%]	Test (3) Inhibition ratio ([1]; methyl cellulose suspension (MC)) [%]	Test (4) Inhibition ratio [2] [%]	IC50 [3] [µM]	IC50 [4] [µM]
O=C(O)COc1ccc(CCCS(=O)(=O)c2ccc(Cl)cc2)cc1NC(=O)c1cccc(OCc2ccc3ccccc3n2)c1 [Comparative compound]	27	21	35		
CCOC(=O)COc1ccc(CCCS(=O)(=O)c2ccc(Cl)cc2)cc1NC(=O)c1cccc(OCc2nc(C(C)(C)C)cs2)c1 [Example 6, Ethyl 2-[3-[(4-tert-butyl-2-thiazolyl)methoxy]benzoylamino]-4-[3-(4-chlorophenylsulfonyl)propyl]phenoxyacetate]				0.00081	0.45
CC(C)(C)c1csc(COc2cccc(C(=O)Nc3cc(CCCS(=O)(=O)c4ccc(Cl)cc4)ccc3OCC(=O)O)c2)n1 [Example 13, 2-[3-[(4-tert-Butyl-2-thiazolyl)methoxy]benzoylamino]-4-[3-(4-chlorophenylsulfonyl)propyl]phenoxyacetic acid]				0.00045	0.055
CCOC(=O)COc1ccc(CCCS(=O)(=O)c2ccc(Cl)cc2)cc1NC(=O)c1cccc(OCc2nc(C3CC3)cs2)c1 [Example 15, Ethyl 4-[3-(4-chlorophenylsulfonyl)propyl]-2-[3-[(4-cyclopropyl-2-thiazolyl]methoxy]benzoylamino]phenoxyacetate]				0.00085	0.063
O=C(O)COc1ccc(CCCS(=O)(=O)c2ccc(Cl)cc2)cc1NC(=O)c1cccc(OCc2nc(C3CC3)cs2)c1 [Example 26, 4-[3-(4-Chlorophenylsulfonyl)propyl]-2-[3-[(4-cyclopropyl-2-thiazolyl)methoxy]benzoylamino]phenoxyacetic acid]				0.00054	0.079
CC(C)(C)c1csc(CSc2cccc(C(=O)Nc3cc(CCCS(=O)(=O)c4ccc(Cl)cc4)ccc3OCC(=O)O)c2)n1 [Example 27, 2-[3-[(4-tert-Butyl-2-thiazolyl)methylthio]benzoylamino]-4-[3-(4-chlorophenylsulfonyl)propyl]phenoxyacetic acid]				0.00067	0.21
CC(C)(C)c1csc(CCc2cccc(C(=O)Nc3cc(CCCS(=O)(=O)c4ccc(Cl)cc4)ccc3OCC(=O)O)c2)n1 [Example 28, 2-[3-[2-(4-tert-Butyl-2-thiazolyl)ethyl]benzoylamino]-4-[3-(4-chlorophenylsulfonyl)propyl]phenoxyacetic acid]				0.00098	0.074
O=C(O)COc1ccc(CCCS(=O)(=O)c2ccc(Cl)cc2)cc1NC(=O)c1cccc(OCc2nc(C3CCCCC3)cs2)c1 [Example 29, 4-[3-(4-Chlorophenylsulfonyl)propyl]-2-[3-[(4-cyclohexyl-2-thiazolyl)methoxy]benzoylamino]phenoxyacetic acid]				0.00061	0.11
O=C(O)COc1ccc(CCCS(=O)(=O)c2ccc(Cl)cc2)cc1NC(=O)c1cccc(OCc2nc(C3CCC3)cs2)c1 [Example 31, 4-[3-(4-Chlorophenylsulfonyl)propyl]-2-[3-[(4-cyclobutyl-2-thiazolyl)methoxy]benzoylamino]phenoxyacetic acid]	72		40	0.00028	0.13
CC(C)(C)c1csc(COc2cccc(C(=O)Nc3cc(CCCS(=O)(=O)c4ccc(Cl)cc4)ccc3OCc3nnn[nH]3)c2)n1 [Example 39, 3-[(4-tert-Butyl-2-thiazolyl)methoxy]-5'-[3-(4-chlorophenylsulfonyl)propyl]-2'-(1H-tetrazol-5-ylmethoxy)benzanilide]				0.00057	0.22
Cc1oc(=O)oc1COC(=O)COc1ccc(CCCS(=O)(=O)c2ccc(Cl)cc2)cc1NC(=O)c1cccc(OCc2nc(C(C)(C)C)cs2)c1 [Example 42, (5-methyl-2-oxo-1,3-dioxol-4-yl)methyl=2-[3-[(4-tert-butyl-2-thiazolyl)methoxy]benzoylamino]-4-[3-(4-chlorophenylsulfonyl)propyl]phenoxyacetic acid]				0.00093	0.42
O=C(Nc1cc(CCCS(=O)(=O)c2ccc(Cl)cc2)ccc1OCc1nnn[nH]1)c1cccc(OCc2nc(C3CCC3)cs2)c1 [Example 74, 5'-[3-(4-Chlorophenylsulfonyl)propyl]-3-[(4-cyclobutyl-2-thiazolyl)methoxy]-2'-(1H-tetrazol-5-ylmethoxy)benzanilide]				0.00024	0.54
CC(C)(C)c1csc(COc2cccc(C(=O)Nc3cc(CCCS(=O)(=O)c4ccc(Cl)cc4)ccc3OC(F)C(=O)O)c2)n1 (centres unmarked) [Example 79, 2-[2-[3-[(4-tert-butyl-2-thiazolyl)methoxy]benzoylamino]-4-[3-(4-chlorophenylsulfonyl)propyl]phenoxy]-2-fluoroacetic acid hydrate]				0.0042	0.89
O=C(O)CNC(=O)COc1ccc(CCCS(=O)(=O)c2ccc(Cl)cc2)cc1NC(=O)c1cccc(OCc2nc3ccccc3s2)c1 [Example 106, N-[[2-[3-(2-Benzothiazolylmethoxy)benzoylamino]-4-[3-(4-chlorophenylsulfonyl)propyl]phenoxy]acetyl]glycine]				0.00092	1.2
CS(=O)(=O)NC(=O)COc1ccc(CCCS(=O)(=O)c2ccc(Cl)cc2)cc1NC(=O)c1cccc(OCc2nc3ccccc3s2)c1 [Example 107, 2-[2-[3-(2-benzothiazolylmethoxy)benzoylamino]-4-[3-(4-chlorophenylsulfonyl)propyl]phenoxy]-N-(methanesulfonyl)acetamide 0.5 hydrate]				0.0037	0.67
O=C(Nc1cc(CCCS(=O)(=O)c2ccc(Cl)cc2)ccc1OCc1nnn[nH]1)c1cccc(OCc2nc3ccccc3s2)c1 [Example 111, 3-(2-benzothiazolylmethoxy)-5'-[3-(4-chlorophenylsulfonyl)propyl]-2'-(1H-tetrazol-5-ylmethoxy)benzanilide]				0.00026	0.38

— patent US5981559A, “Azole derivative with leukotriene (LTs) antagonizing activity and thromboxane (TX) A2 antagonizing activity” (Yamanouchi Pharmaceutical Co., Ltd., priority 1994, dated 1999)
